Assay results as given in patent US20230123334A1, “AMINO LIPID COMPOUND, PREPARATION METHOD THEREFOR, AND APPLICATION THEREOF” (SHENZHEN SHENXIN BIOTECHNOLOGY CO., LTD., priority 2020, published 2023).

Experiments:
Format in all cases: cell-based
Hela cells [1] = assay: Transfection of Hela cell line, mRNA vectors; settings: 50 ng EGFP mRNA per well
Method: (§1) Cell line: Hela cells (ATCC 35241)
(§2) Medium: DMEM supplemented with 10% fetal bovine serum (Invitrogen)
(§3) Screening: cell transfection on 96-well plates
Detection (readout): percentage of the number of GFP fluorescent cells relative to the total number of cells (the total number of cells was determined using nucleus dye Hoechst). A commercially available liposome transfection reagent Lipofectamine2000 (Invitrogen) was used as the positive control group, according to the manufacturer's instructions.
Method: the experimental method was basically the same with Example 4, and the mass of EGFP mRNA for transfection was 50 ng per well.

HEK293 cells [2] = assay: Preliminary screening as DNA vectors, GFP transfection of HEK293 cells; settings: HEK293 cells; lipid/DOPE liposome with 75 ng plasmid DNA (psin-EGFP-IRES-Puro); number of cells expressing GFP divided by total number of nuclei (Hoechst)
Summary of the method: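 HEK293 cells in DMEM/10% FBS transfected with 75 ng EGFP plasmid per well complexed with amino lipid/DOPE liposomes in pH 5.6 sodium acetate. Hoechst nuclear stain added 20-24 h post-transfection, then cells cultured another 20-24 h. Confocal imaging gives GFP-positive cells as % of total nuclei.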

Hela cells [3] = assay: Transfection of Hela cell line, DNA vectors; settings: 75 ng plasmid DNA, GFP cells / total cells
Method: 1. The compound (0.01 mmol) prepared in Example 1 was dissolved in 1 mL of anhydrous ethanol. After ultrasonically dissolved, 10 μL of the resultant amino lipid solution in ethanol was taken and mixed with 5 μL of DOPE solution in ethanol (0.01 m), and then to the obtained mixture was added 35 μL of 0.2M sodium acetate buffer (pH 5.6), and 50 μL of liposome solution was prepared by vortex at a constant rotating speed for 30 s. 4 μL was taken from the 50 μL liposome solution and added to 46 μL of 0.02M sodium acetate buffer (pH 5.6), and the final liposome solution was formed by vortex at a constant rotating speed for 30 s. 5 μL was taken from the final liposome solution and mixed with 75 ng plasmid DNA (psin-EGFP-IRES-Puro, Clontech) dissolved in 5 μL of 0.02 M sodium acetate buffer, and was allowed to stay at room temperature for 30 min to form a lipid/DNA transfection complex.
2. 10 μL of the lipid/DNA transfection complex was incubated at room temperature for 30 min, followed by addition of 90 μL of fresh resuspended cells (3-5×10^4 cells) and mixing with a pipette. 100 μL of cells+lipid/DNA complex was transferred to separate wells of a 96-well culture plate immediately, and placed in an incubator containing 5% CO2 at 37° C.
3. Hoechst33258 (Invitrogen) was added at a final concentration of 0.2 μg/mL to the cells 20 to 24 hours after initial cell transfection, and cultured in darkness at 37° C. for 15 min. Afterwards, the cells were washed once with a PBS solution, and then added with medium for culture for 20 to 24 h.
4. The cells were placed in a high-throughput confocal microscope (Molecular Devices ImageXpress), and four visual fields of the image of the cells were captured for each well, and images at three laser wavelengths were captured for each sample: bright field images of cells (FIG. 2(a) and FIG. 2(b)), Hoechst-staining images showing total nuclei (FIG. 2(c) and FIG. 2(d)) and GFP images showing success in transfection with the plasmid DNA and the expression of GFP (FIG. 2(e) and FIG. 2(f)). MetaXpress software was used to separately count the cells in the Hoechst-staining images and GFP images, and then the number of cells expressing GFP was divided by the total number of nuclei to give the absolute cell transfection efficiency. The absolute transfection efficiency was calculated as follows: […]
as §1, §2, §3
Detection (readout): percentage of the number of GFP fluorescent cells relative to the total number of cells (the total number of cells was determined using nucleus dye Hoechst). Lipofectamine2000 (Invitrogen) was used as the positive control, according to the manufacturer's instructions.
Method: the experimental method was basically the same with Example 4.

HEK293 cells [4] = assay: Preliminary screening as mRNA vectors, EGFP mRNA transfection of HEK293 cells; settings: HEK293 cells, 96-well plates, EGFP mRNA 50 ng per well; percentage of GFP fluorescent cells relative to total number of cells (Hoechst)
Summary of the method: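 HEK293 cells in DMEM plus 10% FBS transfected in 96-well format with 50 ng EGFP mRNA per well; Lipofectamine2000 served as positive control. Read-out is the percentage of GFP-fluorescent cells among total cells, counted by Hoechst nuclear stain.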

| SMILES | Absolute mRNA transfection efficiency in Hela cells (Hela cells [1]) [%] | Absolute DNA transfection efficiency in HEK293 cells (HEK293 cells [2]) [%] | Absolute DNA transfection efficiency in Hela cells (Hela cells [3]) [%] | Absolute mRNA transfection efficiency in HEK293 cells (HEK293 cells [4]) [%] |
| --- | --- | --- | --- | --- |
| CCCCCCCCCCCCSc1nc(NCCN(CC)CC)nc(SCCCCCCCCC)n1 [Compound S9S12D7] | 2.7 | 5.3 | 2.7 | 3.4 |
| CCCCCCCCCCCCCCSc1nc(NCCN(C)C)nc(SCCCCCCCCC)n1 [Compound S9S14D1] | 1.4 | 2.1 | 1.4 | 1.6 |
| CCCCCCCCCCCCCCSc1nc(NCCN2CCOCC2)nc(SCCCCCCCCC)n1 [Compound S9S14D2] | 7.3 | 14.3 | 7.3 | 0.3 |
| CCCCCCCCCCCCCCSc1nc(NCCN2CCCCC2)nc(SCCCCCCCCC)n1 [Compound S9S14D4] | 3.6 | 7.2 | 3.6 | 0.7 |
| CCCCCCCCCCCCCCSc1nc(NCCN(CC)CC)nc(SCCCCCCCCC)n1 [Compound S9S14D7] | 6.2 | 12.5 | 6.5 | 1.5 |
| CCCCCCCCCCCSc1nc(NCCCCCCC)nc(NCCN(C)C)n1 [Compound S11N7D1] | 13.9 |  | 13.9 |  |
| CCCCCCCCCCCSc1nc(NCCCCCCC)nc(NCCN2CCOCC2)n1 [Compound S11N7D2] | 5.8 |  | 5.8 |  |
| CCCCCCCCCCCSc1nc(NCCCCCCC)nc(NCCN2CCCCC2)n1 [Compound S11N7D4] | 2.3 |  | 2.3 |  |
| CCCCCCCCCCCSc1nc(NCCCCCCC)nc(NCCN(CC)CC)n1 [Compound S11N7D7] | 5.8 |  | 5.8 |  |
| CCCCCCCCCCCSc1nc(NCCCCCCCC)nc(NCCN(C)C)n1 [Compound S11N8D1] | 9.9 |  | 9.9 |  |
| CCCCCCCCCCCSc1nc(NCCCCCCCC)nc(NCCN2CCOCC2)n1 [Compound S11N8D2] | 9.3 |  | 9.3 |  |
| CCCCCCCCCCCSc1nc(NCCCCCCCC)nc(NCCN2CCCCC2)n1 [Compound S11N8D4] | 2.9 |  | 2.9 |  |
| CCCCCCCCCCCSc1nc(NCCCCCCCC)nc(NCCN(CC)CC)n1 [Compound S11N8D7] | 5.7 |  | 5.7 |  |
| CCCCCCCCCCCSc1nc(NCCCCCCCCC)nc(NCCN(C)C)n1 [Compound S11N9D1] | 6.0 |  | 6.0 |  |
| CCCCCCCCCCCSc1nc(NCCCCCCCCC)nc(NCCN2CCOCC2)n1 [Compound S11N9D2] | 6.8 |  | 6.8 |  |
| CCCCCCCCCCCSc1nc(NCCCCCCCCC)nc(NCCN2CCCCC2)n1 [Compound S11N9D4] | 0.5 |  | 0.5 |  |
| CCCCCCCCCCCSc1nc(NCCCCCCCCC)nc(NCCN(CC)CC)n1 [Compound S11N9D7] | 0.9 |  | 0.9 |  |
